“Also recorded” adds a separate entry of the source. Where two headings read alike, the source gives them in different places. Values belong to the molecule of their own block, whether it stands above or below them. Square brackets hold non-standard residues; d marks the D form. Peptide text beside a SMILES is read from it. Nle = CCCC[C@H](N)C(=O)O
Legend:
papain = molecular target: T1, papain (Carica papaya, UniProt P00784); experiment: Selectivity: papain protease assay (casein substrate); type: biochemical; details: Table II; read-out: Inhibitory Activity of Thiol-Acrylates, Papain (IC50)
T1 construct: purchased Sigma P3125; host or cells: papaya latex
T1 sequence (P00784 134-345): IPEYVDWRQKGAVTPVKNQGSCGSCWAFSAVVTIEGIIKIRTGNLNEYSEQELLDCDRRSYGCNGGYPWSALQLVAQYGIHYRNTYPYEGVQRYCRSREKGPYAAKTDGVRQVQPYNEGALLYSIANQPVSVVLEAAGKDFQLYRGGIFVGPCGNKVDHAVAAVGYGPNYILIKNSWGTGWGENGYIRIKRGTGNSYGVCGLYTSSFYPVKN
Protocol: (§1) Calpain I was assayed as described (α-mercaptoacrylic acid). Ten to 20 ng papain (papaya latex, Sigma, P3125), 1.25 μg trypsin (bovine pancreas, Sigma, T8003), and 5 μg thermolysin (Bacillus thermoproteolyticus, Sigma, P1512) were assayed using 0.5 mg/mL casein as substrate in the microplate format (250 μL reaction volume), essentially as described by Buroker-Kilgore M., Wang K. K. W., Anal Biochem 1993;208:387-392. Inhibition of these proteases are presented as IC50.

calpain I [1] = molecular target: T2, calpain I (Homo sapiens, UniProt P07384); experiment: Assay of Calpain Activity (casein substrate, microplate, Coomassie blue); type: biochemical; parameters: Calpain I was purified from human erythrocytes; from tissue; host or cells: human erythrocytes
T2 sequence (P07384 1-714): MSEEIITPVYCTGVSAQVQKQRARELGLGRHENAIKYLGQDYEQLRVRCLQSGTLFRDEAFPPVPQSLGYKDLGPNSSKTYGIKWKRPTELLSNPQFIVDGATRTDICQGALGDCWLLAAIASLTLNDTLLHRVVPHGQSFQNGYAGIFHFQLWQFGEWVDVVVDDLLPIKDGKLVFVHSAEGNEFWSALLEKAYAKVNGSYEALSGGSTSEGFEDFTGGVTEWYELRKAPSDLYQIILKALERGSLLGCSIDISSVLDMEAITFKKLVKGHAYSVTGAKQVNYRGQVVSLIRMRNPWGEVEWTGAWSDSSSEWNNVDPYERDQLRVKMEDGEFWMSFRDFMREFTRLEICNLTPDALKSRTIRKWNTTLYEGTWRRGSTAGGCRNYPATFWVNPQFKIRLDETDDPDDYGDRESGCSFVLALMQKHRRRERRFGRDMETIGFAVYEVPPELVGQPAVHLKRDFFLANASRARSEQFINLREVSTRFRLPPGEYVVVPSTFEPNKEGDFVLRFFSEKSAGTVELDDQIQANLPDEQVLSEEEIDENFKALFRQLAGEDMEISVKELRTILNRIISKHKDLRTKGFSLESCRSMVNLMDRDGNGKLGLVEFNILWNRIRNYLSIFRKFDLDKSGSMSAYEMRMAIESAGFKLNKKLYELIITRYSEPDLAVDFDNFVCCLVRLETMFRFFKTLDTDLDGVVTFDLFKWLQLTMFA
T2 sequence (P04632 1-268 partner): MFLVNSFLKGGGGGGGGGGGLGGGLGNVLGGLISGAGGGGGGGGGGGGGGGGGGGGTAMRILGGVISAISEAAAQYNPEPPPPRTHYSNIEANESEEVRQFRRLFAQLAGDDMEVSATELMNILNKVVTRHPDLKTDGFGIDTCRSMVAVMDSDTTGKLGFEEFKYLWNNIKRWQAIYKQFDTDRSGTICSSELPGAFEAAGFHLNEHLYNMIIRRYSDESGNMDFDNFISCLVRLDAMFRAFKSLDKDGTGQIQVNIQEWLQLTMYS
Protocol: (§2) In 250 μL of reaction mixture, substrate casein (0.5 mg/mL) was incubated with 0.01 unit (80-120 ng) calpain I, 20 mM dithiothreitol (DTT), 50 mM Tris-HCl (pH 7.4 at 25° C.), and 4 mM CaCl2 at 25° C. for 60 minutes. Two 100-μL aliquots were taken for Coomassie blue binding analysis to quantify the remaining casein.
Calpain I was assayed as described (α-mercaptoacrylic acid). […] Inhibition of these proteases are presented as IC50.

calpain I [2] = molecular target: T2, calpain I; experiment: Casein Breakdown by calpain I (SDS-PAGE); type: biochemical; parameters: casein substrate; details: 30 μM compound, 0.8 nM calpain I, all time points up to 120 minutes
Protocol: Casein (15 μM) was incubated with 0.8 nM calpain I, 15 mM DTT, 45 mM Tris-HCl (pH 7.4 at 25° C.) and in the presence or the absence of compound Example 3 (30 μM) for up to 120 minutes. Aliquots of the samples were taken at several time points and subjected to SDS-polyacrylamide gel electrophoresis (SDS-PAGE) as described by Laemmli U. K., Nature 1970;[…]. Casein and its fragments were visualized by Coomassie G250 staining of the gel.

trypsin = molecular target: T3, trypsin (Bos taurus, UniProt P00760); experiment: Selectivity: trypsin protease assay (casein substrate); type: biochemical, bovine; details: Table II; read-out: Inhibitory Activity of Thiol-Acrylates, Trypsin (IC50)
T3 construct: purchased Sigma T8003; host or cells: bovine pancreas
T3 sequence (P00760 24-246): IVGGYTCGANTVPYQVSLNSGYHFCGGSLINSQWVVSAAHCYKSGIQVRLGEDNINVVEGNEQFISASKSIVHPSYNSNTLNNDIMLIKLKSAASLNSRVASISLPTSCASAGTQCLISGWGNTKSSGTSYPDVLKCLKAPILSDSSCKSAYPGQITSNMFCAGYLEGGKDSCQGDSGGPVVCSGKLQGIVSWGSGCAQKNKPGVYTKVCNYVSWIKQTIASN
Protocol: as §1

thermolysin = molecular target: T4, thermolysin (Bacillus thermoproteolyticus, UniProt P00800); experiment: Selectivity: thermolysin protease assay (casein substrate); type: biochemical
T4 construct: purchased Sigma P1512; host or cells: Bacillus thermoproteolyticus
Protocol: as §1

[3] = tested on: spectrin breakdown in rat cortical cell cultures; experiment: Spectrin Breakdown Measurement (immunoblot); type: cell-based; details: NMDA-treated cortical cells, 4-hour post-NMDA
Protocol: Rat cortical cell cultures were treated with NMDA in the absence or presence of calpain inhibiting compounds as described in "Assay of LDH" above. At the end of the 4-hour post-NMDA incubation, cells were lysed with 300 μL buffer containing 20 mM Tris-HCL (pH 7.4 at 4° C.), 1% SDS, 5 mM EGTA, 5 mM EDTA, 1 mM DTT, and various protease inhibitors. Total cellular protein was precipitated by 100 μL of 100% trichloroacetic acid. The samples were centrifuged and the pelleted protein solubilized with 50 μl of 3M Tris base. […] The blots were then probed with rabbit antibrain spectrin antibody (primary antibody) followed by alkaline phosphatase-conjugated goat antirabbit immunoglobulin G antibody (secondary antibody). […] The SBP were quantified by densitometry (BioRad Model 620).

[4] = tested on: Fetal rat cortical cell cultures; experiment: Assay of Lactate Dehydrogenase (LDH): NMDA-induced LDH release; type: cell-based; details: 500 μM NMDA; 200 μM calpain inhibiting compound; FIG. II
Protocol: Seventeen-day-old cultures were pretreated with 200 μM calpain inhibiting compound (when added) for 1 hour before treatment of 500 μM N-methyl-D-aspartate (NMDA) for 30 minutes (in the absence or the presence of the compound).

calpain I [5] = molecular target: T2, calpain I; experiment: Calpain inhibition after treatment with rabbit liver esterase; type: biochemical; parameters: casein substrate; details: FIG. I
Protocol: as §2, with “Calpain I was purified from human erythrocytes as described by Wang K. K. W., Roufogalis B. D., Villalobo A., Arch Biochem Biophys 1988;267:317-327.Calpain activity was assayed in a 96-well microplate format (Buroker-Kilgore M., Wang K. K. W., Anal Biochem 1993;208:387-392). In” for “In”
Various concentrations of the compound of Example 6 (250 nM to 2.5 mM) were pretreated with 0.2 unit rabbit liver esterase (Sigma E9636) in 50 μL containing 50 mM Tris-HCl (pH 7.4 at 25° C.), 5 mM DTT at 25° C. for 60 minutes. The mixture was then tested for calpain inhibition with the calpain assay described above.
The esterase presumably hydrolyzed the only ester bond in the molecule, producing the free acid compound which is identical to the compound of Example 3.

myocardiac infraction = details: dogs, coronary reperfusion after acute myocardiac infraction; cited from earlier work
smooth muscle cells = details: cited from earlier work
restenosis = details: in vivo; cited from earlier work
[6] = Table I, 4 mM CaCl2, pH 7.4, 25° C., 60 minutes, read-out: Inhibitory Activity Against Human Calpain I IC50

T4 sequence (P00800 233-548): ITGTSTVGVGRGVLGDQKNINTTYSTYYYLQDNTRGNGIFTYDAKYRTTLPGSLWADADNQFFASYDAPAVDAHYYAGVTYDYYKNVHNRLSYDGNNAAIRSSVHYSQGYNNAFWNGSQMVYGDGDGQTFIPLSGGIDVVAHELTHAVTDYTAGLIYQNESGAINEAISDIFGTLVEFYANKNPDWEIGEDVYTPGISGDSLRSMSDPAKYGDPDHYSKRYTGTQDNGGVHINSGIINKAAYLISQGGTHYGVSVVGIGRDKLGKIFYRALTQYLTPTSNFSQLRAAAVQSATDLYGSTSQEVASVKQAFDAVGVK

Structure (SMILES): O=C(O)/C(S)=C/c1ccc2ccccc2c1 [Example 3, (Z)-2-Propenoic Acid, 2-mercapto-3-(7-naphthalenyl)]
IC50 (papain): > 200 µM | IC50 (calpain I [1]; [6]): 2.6 µM | IC50 (calpain I [1]; Table II (selectivity), read-out: Inhibitory Activity of Thiol-Acrylates, Calpain (IC50)): 2.4 µM | degradation of casein by calpain I (in words) (calpain I [2]): almost completely blocked the degradation of casein at all time points | IC50 (trypsin): > 200 µM | IC50 (thermolysin): 394 µM | spectrin breakdown product (SBP) formation, 150 kDa and 145 kDa (in words) [3]: partially blocked SBP formation | block of NMDA-induced LDH release (in words) [4]: partially blocked

IC50 (calpain I [1]; [6]): > 500 µM | inhibition of calpain I without esterase (in words) (calpain I [5]; as high as 500 μM, no esterase): did not inhibit calpain I
Structure (SMILES): CCOC(=O)/C(S)=C/c1ccc2ccccc2c1 [Example 6, Ethyl 2-Propenoic Acid, (Z)-2-mercapto-3-(2-naphthalenyl)-, Ethyl Ester]
inhibition of calpain upon preincubation with esterase (in words) (calpain I [5]; 0.2 unit rabbit liver esterase, 60 minutes): shows activity only after it is hydrolyzed by cellular esterase; also recorded: strong inhibition on calpain

Structure (SMILES): CC(C)CCNC(=O)[C@H](CC(C)C)NC(=O)[C@H]1O[C@@H]1C(=O)O [Example E64c]
size of infract (myocardiac infraction): significantly reduce the size of infract

Structure (SMILES): CCCC[C@@H](C=O)NC(=O)[C@H](CC(C)C)NC(=O)[C@H](CC(C)C)NC(C)=O [calpain inhibitor I] (Ac-Leu-Leu-[Nle]-aldehyde)
proliferation and migration of smooth muscle cells to the neoinitimal layer (smooth muscle cells): controlling proliferation and migration of smooth muscle cells | inhibition of restenosis (restenosis): inhibit restenosis

— patent US5760048A, “Alpha-mercaptoacrylic acid derivatives having calpain inhibitory activity” (Warner-Lambert Company, priority 1996, dated 1998)
